The text below walks through data of patent US8785445B2 (Array BioPharma Inc., priority 2008, dated 2014).

For orientation: EC50 means the concentration at which the effect is half-maximal.

One assay concerns the target T1, human DP2 (Homo sapiens, UniProt Q9Y5Y4).
T1 construct: expressed in transfected cells; membranes prepared
T1 sequence (Q9Y5Y4 1-395): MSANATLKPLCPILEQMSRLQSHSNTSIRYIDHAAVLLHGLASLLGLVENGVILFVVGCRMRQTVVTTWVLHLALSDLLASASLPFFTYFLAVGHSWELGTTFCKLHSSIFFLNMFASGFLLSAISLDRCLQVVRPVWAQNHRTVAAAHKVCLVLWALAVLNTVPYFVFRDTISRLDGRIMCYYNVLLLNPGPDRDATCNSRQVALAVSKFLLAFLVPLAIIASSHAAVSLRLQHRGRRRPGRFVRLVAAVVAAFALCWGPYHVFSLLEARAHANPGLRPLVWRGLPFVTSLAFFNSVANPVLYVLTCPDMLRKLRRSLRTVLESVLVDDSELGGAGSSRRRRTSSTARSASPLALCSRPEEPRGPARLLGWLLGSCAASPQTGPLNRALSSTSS
In words: DP-2 binding inhibition assay (3H-PGD2, membranes of DP2-expressing K562 cells). Particulars: 0.1% BSA, read-out: EC50 (nM) 0.1% BSA. Here is the method: The coding sequence of human DP2 was introduced into the human Leukemic cell line K562 by electroporation and stable clones expressing DP2 were obtained by limiting dilution followed by cell surface staining with a rat monoclonal antibody specific for human DP2. Membranes were prepared from one of these DP2 expressing clones and used to determine the ability of the compounds of the present invention to inhibit binding of prostaglandin D2 (PGD2) to its receptor DP2 in the presence of one or more of the following serum protein concentrations, 0.1% BSA, 1% HSA or 4% HSA, by the following procedure. […] After incubation for 60 minutes at room temperature, the assay was transferred to a filtration plate (#MAFB; Millipore Corporation, Bedford, Mass.), and washed three times with binding buffer. Radioactivity was measured by a scintillation counter (TopCount; PerkinElmer Life Sciences, Boston, Mass.). Nonspecific binding was determined by incubations in the presence of 1 μM unlabeled PGD2 or 5 μM of a known DP2 antagonist. IC50 values for inhibition of binding were determined for each compound tested from the inflexion point of a standard 4-parameter logistical curve fitted to the values obtained.
With `O=C(Nc1ccc(C(F)(F)F)nc1)c1ccc(Oc2cc3c(cc2Cl)C(C(=O)O)CCO3)cc1` (stereo not drawn) [Example 29, 6-Chloro-7-(4-(6-(trifluoromethyl)pyridin-3-ylcarbamoyl)phenoxy)chroman-4-carboxylic acid], the concentration giving a half-maximal response (EC50) amounted to 34.7 nM. The same measure, in the same setting: to `O=C(Nc1ccc2cc(Cl)ccc2n1)c1ccc(Oc2cc3c(cc2Cl)C(C(=O)O)CCO3)cc1` (stereo not drawn) [Example 30, 6-Chloro-7-(4-(6-chloroquinolin-2-ylcarbamoyl)phenoxy)chroman-4-carboxylic acid] belongs 13 nM.

The assay is the same for the next values; noted with them: 1% HSA, read-out: EC50 (nM) 1% HSA.
On to `O=C(Nc1ccc(C(F)(F)F)nc1)c1ccc(Oc2cc3c(cc2Cl)C(C(=O)O)CCO3)cc1` (stereo not drawn) [Example 29, 6-Chloro-7-(4-(6-(trifluoromethyl)pyridin-3-ylcarbamoyl)phenoxy)chroman-4-carboxylic acid], for which the EC50 was found to be 661 nM. The same measure, in the same setting: in the case of `O=C(Nc1ccc2cc(Cl)ccc2n1)c1ccc(Oc2cc3c(cc2Cl)C(C(=O)O)CCO3)cc1` (stereo not drawn) [Example 30, 6-Chloro-7-(4-(6-chloroquinolin-2-ylcarbamoyl)phenoxy)chroman-4-carboxylic acid] it was 120 nM.

Staying with this assay, now noted: 4% HSA, read-out: EC50 (nM) 4% HSA.
As to `O=C(Nc1ccc2ccccc2n1)c1ccc(Oc2cc3c(cc2Cl)C(C(=O)O)CCO3)cc1` (stereo not drawn) [Example 23, 6-Chloro-7-(4-(quinolin-2-ylcarbamoyl)phenoxy)chroman-4-carboxylic acid], the EC50 came to 586 nM. On the same count and under the same terms, in the case of `Cc1cccc2ccc(NC(=O)c3ccc(Oc4cc5c(cc4Cl)C(C(=O)O)CCO5)cc3)nc12` (stereo not drawn) [Example 24, 6-Chloro-7-(4-(8-methylquinolin-2-ylcarbamoyl)phenoxy)chroman-4-carboxylic acid] it was 764 nM; in that of `O=C(Nc1ccc2cccc(Cl)c2n1)c1ccc(Oc2cc3c(cc2Cl)C(C(=O)O)CCO3)cc1` (stereo not drawn) [Example 25, 6-Chloro-7-(4-(8-chloroquinolin-2-ylcarbamoyl)phenoxy)chroman-4-carboxylic acid], 5980 nM. Still for that read-out and setting: in the case of `Cc1cc2ccccc2nc1NC(=O)c1ccc(Oc2cc3c(cc2Cl)C(C(=O)O)CCO3)cc1` (stereo not drawn) [Example 26, 6-Chloro-7-(4-(3-methylquinolin-2-ylcarbamoyl)phenoxy)chroman-4-carboxylic acid] it was 1910 nM; in that of `O=C(Nc1cccc(-c2ccccc2)n1)c1ccc(Oc2cc3c(cc2Cl)C(C(=O)O)CCO3)cc1` (stereo not drawn) [Example 27, 6-chloro-7-(4-(6-phenylpyridin-2-ylcarbamoyl)phenoxy)chroman-4-carboxylic acid], 173 nM. Still for that read-out and setting: to `O=C(Nc1cccc(C(F)(F)F)n1)c1ccc(Oc2cc3c(cc2Cl)C(C(=O)O)CCO3)cc1` (stereo not drawn) [Example 28, 6-Chloro-7-(4-(6-(trifluoromethyl)pyridin-2-ylcarbamoyl)phenoxy)chroman-4-carboxylic acid] belongs 187 nM; to `O=C(Nc1ccc(C(F)(F)F)nc1)c1ccc(Oc2cc3c(cc2Cl)C(C(=O)O)CCO3)cc1` (stereo not drawn) [Example 29, 6-Chloro-7-(4-(6-(trifluoromethyl)pyridin-3-ylcarbamoyl)phenoxy)chroman-4-carboxylic acid], 49.5 nM; to `O=C(Nc1ccc2cc(Cl)ccc2n1)c1ccc(Oc2cc3c(cc2Cl)C(C(=O)O)CCO3)cc1` (stereo not drawn) [Example 30, 6-Chloro-7-(4-(6-chloroquinolin-2-ylcarbamoyl)phenoxy)chroman-4-carboxylic acid], 134 nM. Regarding `O=C(Nc1cc(C(F)(F)F)ccn1)c1ccc(Oc2cc3c(cc2Cl)C(C(=O)O)CCO3)cc1` (stereo not drawn) [Example 31, 6-Chloro-7-(4-(4-(trifluoromethyl)pyridin-2-ylcarbamoyl)phenoxy)chroman-4-carboxylic acid], the EC50 stood at 1730 nM. With `O=C(Nc1cncc(-c2ccccc2)n1)c1ccc(Oc2cc3c(cc2Cl)C(C(=O)O)CCO3)cc1` (stereo not drawn) [Example 32, 6-Chloro-7-(4-(6-phenylpyrazin-2-ylcarbamoyl)phenoxy)chroman-4-carboxylic acid], the concentration giving a half-maximal response (EC50) turned out to be 401 nM. The same measure, in the same setting: to `O=C(Nc1cccc(-c2ccc(Cl)cc2)n1)c1ccc(Oc2cc3c(cc2Cl)C(C(=O)O)CCO3)cc1` (stereo not drawn) [Example 33, 6-Chloro-7-(4-(6-(4-chlorophenyl)pyridin-2-ylcarbamoyl)phenoxy)chroman-4-carboxylic acid] belongs 30 nM; to `O=C(Nc1cccc(-c2cccc(Cl)c2)n1)c1ccc(Oc2cc3c(cc2Cl)C(C(=O)O)CCO3)cc1` (stereo not drawn) [Example 34, 6-Chloro-7-(4-(6-(3-chlorophenyl)pyridin-2-ylcarbamoyl)phenoxy)chroman-4-carboxylic acid], 241 nM.

In the case of `Cc1cccc(-c2cccc(NC(=O)c3ccc(Oc4cc5c(cc4C#N)C(C(=O)O)CCO5)cc3)n2)c1C` (stereo not drawn) [Example 40, 6-Cyano-7-(4-(6-(2,3-dimethylphenyl)pyridin-2-ylcarbamoyl)-phenoxy)-chroman-4-carboxylic acid], the EC50 came to 120 nM. On to `N#Cc1cc2c(cc1Oc1ccc(C(=O)Nc3cccc(-c4cccc(C(F)(F)F)c4)n3)cc1)OCCC2C(=O)O` (stereo not drawn) [Example 41, 6-Cyano-7-(4-(6-(3-(trifluoromethyl)phenyl)pyridin-2-ylcarbamoyl)-phenoxy)chroman-4-carboxylic acid], for which the 50% effective concentration (EC50) worked out at 50.8 nM.

With `N#Cc1cc2c(cc1Oc1ccc(C(=O)Nc3cccc(-c4ccc(C(F)(F)F)cc4)n3)cc1)OCCC2C(=O)O` (stereo not drawn) [Example 42, 6-Cyano-7-(4-(6-(4-(trifluoromethyl)phenyl)pyridin-2-ylcarbamoyl)-phenoxy)chroman-4-carboxylic acid], the EC50 was 36.1 nM. Same read-out and setting: to `N#Cc1cc2c(cc1Oc1ccc(C(=O)Nc3cccc(-c4ccc5c(c4)CCO5)n3)cc1)OCCC2C(=O)O` (stereo not drawn) [Example 43, 6-Cyano-7-(4-(6-(2,3-dihydrobenzofuran-5-yl)pyridin-2-ylcarbamoyl)-phenoxy)chroman-4-carboxylic acid] belongs 291 nM; to `O=C(Nc1ccc(F)c(-c2ccc(Cl)cc2)n1)c1ccc(Oc2cc3c(cc2Cl)C(C(=O)O)CCO3)cc1` (stereo not drawn) [Example 44, Sodium 6-Chloro-7-(4-(6-(4-chlorophenyl)-5-fluoropyridin-2-ylcarbamoyl)phenoxy)chroman-4-carboxylate], 5000 nM. Still for that read-out and setting: to `N#Cc1cc2c(cc1Oc1ccc(C(=O)Nc3cccc(-c4ccc(Cl)cc4Cl)n3)cc1)OCCC2C(=O)O` (stereo not drawn) [Example 49, 6-Cyano-7-(4-(6-(2,4-dichlorophenyl)pyridin-2-ylcarbamoyl)phenoxy)chroman-4-carboxylic acid] belongs 87.3 nM; to `N#Cc1cc2c(cc1Oc1ccc(C(=O)Nc3cccc(-c4cccc(Cl)c4)n3)cc1)OCCC2C(=O)O` (stereo not drawn) [Example 50, 7-(4-(6-(3-Chlorophenyl)pyridin-2-ylcarbamoyl)phenoxy)-6-cyanochroman-4-carboxylic acid], 135 nM. Same read-out and setting: in the case of `N#Cc1cc2c(cc1Oc1ccc(C(=O)Nc3cccc(-c4ccc(Cl)cc4)n3)cc1)OCCC2C(=O)O` (stereo not drawn) [Example 51, 7-(4-(6-(4-Chlorophenyl)pyridin-2-ylcarbamoyl)phenoxy)-6-cyanochroman-4-carboxylic acid] it was 51.3 nM; in that of `O=C(Nc1cccc(-c2ccc(Cl)c(Cl)c2)n1)c1ccc(Oc2cc3c(cc2Cl)C(C(=O)O)CCO3)cc1` (stereo not drawn) [Example 52, 6-Chloro-7-(4-(6-(3,4-dichlorophenyl)pyridin-2-ylcarbamoyl)phenoxy)chroman-4-carboxylic acid], 50.8 nM. As to `O=C(Nc1cccc(-c2ccc(Cl)c(C(F)(F)F)c2)n1)c1ccc(Oc2cc3c(cc2Cl)C(C(=O)O)CCO3)cc1` (stereo not drawn) [Example 53, 6-Chloro-7-(4-(6-(4-chloro-3-(trifluoromethyl)phenyl)pyridin-2-ylcarbamoyl)phenoxy)chroman-4-carboxylic acid], the half-maximal effective concentration (EC50) was determined as 40.9 nM. The same measure, in the same setting: in the case of `COc1ccc(-c2cccc(NC(=O)c3ccc(Oc4cc5c(cc4Cl)C(C(=O)O)CCO5)cc3)n2)cn1` (stereo not drawn) [Example 54, Sodium 6-chloro-7-(4-(6′-methoxy-2,3′-bipyridin-6-ylcarbamoyl)phenoxy)chroman-4-carboxylate] it was 337 nM. The same measure, in the same setting: in the case of `COc1ccc(-c2cccc(NC(=O)c3ccc(Oc4cc5c(cc4Cl)C(C(=O)O)CCO5)cc3)n2)c(OC)n1` (stereo not drawn) [Example 55, Sodium 6-chloro-7-(4-(2′,6′-dimethoxy-2,3′-bipyridin-6-ylcarbamoyl)phenoxy)chroman-4-carboxylate] it was 258 nM.

As to `O=C(Nc1cccc(-c2ccccc2Cl)n1)c1ccc(Oc2cc3c(cc2Cl)C(C(=O)O)CCO3)cc1` (stereo not drawn) [Example 56, 6-Chloro-7-(4-(6-(2-chlorophenyl)pyridin-2-ylcarbamoyl)phenoxy)chroman-4-carboxylic acid], the half-maximal effective concentration (EC50) came to 582 nM. Consider `Cc1ccc(-c2cccc(NC(=O)c3ccc(Oc4cc5c(cc4Cl)C(C(=O)O)CCO5)cc3)n2)cc1` (stereo not drawn) [Example 57, 6-Chloro-7-(4-(6-p-tolylpyridin-2-ylcarbamoyl)phenoxy)chroman-4-carboxylic acid], for which the EC50 was determined as 39.4 nM.

On to `COc1ccc(-c2cccc(NC(=O)c3ccc(Oc4cc5c(cc4Cl)C(C(=O)O)CCO5)cc3)n2)cc1` (stereo not drawn) [Example 58, 6-Chloro-7-(4-(6-(4-methoxyphenyl)pyridin-2-ylcarbamoyl)phenoxy)chroman-4-carboxylic acid], for which the EC50 is 67 nM. The same measure, in the same setting: to `O=C(Nc1ccc(-c2ccc(C(F)(F)F)cc2Cl)nn1)c1ccc(Oc2cc3c(cc2Cl)C(C(=O)O)CCO3)cc1` (stereo not drawn) [Example 59, Sodium 6-chloro-7-(4-(6-(2-chloro-4-(trifluoromethyl)phenyl)pyridazin-3-ylcarbamoyl)phenoxy)chroman-4-carboxylate] belongs 283 nM.

For `O=C(Nc1ccc(-c2ccc(C(F)(F)F)c(Cl)c2)nn1)c1ccc(Oc2cc3c(cc2Cl)C(C(=O)O)CCO3)cc1` (stereo not drawn) [Example 60, Sodium 6-chloro-7-(4-(6-(3-chloro-4-(trifluoromethyl)phenyl)pyridazin-3-ylcarbamoyl)phenoxy)chroman-4-carboxylate], the EC50 was determined as 63 nM.
